Some test systems named below: 786-0 renal; DU-145 prostate; LOX IMVI melanoma; MALME-3M melanoma; NCI-H23 lung; NCI-H522 lung; OVCAR-4 ovarian; SK-MEL-28 melanoma; SK-MEL-5 melanoma; UACC-62 melanoma.
Test in all cases: growth of human tumour cells (NCI), 48 h

Molecules are shown by their SMILES.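 How tested: cells in 96-well plates exposed to compound for 48 hours at five concentrations. Here, GI50 denotes the concentration required for 50% inhibition of growth. TGI marks complete inhibition of growth.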 Some results are limits rather than exact numbers.

On to `CN(C)c1ccc(/C=C2\C[N+](C)(C)C/C(=C\c3ccc(N(C)C)cc3)C2=O)cc1`, for which the TGI is 85.3 µM in the assay on 786-0 renal; more than 100 µM with DU-145 prostate; 36.4 µM in the assay with LOX IMVI melanoma; 46.4 µM in the assay with MALME-3M melanoma; 54.4 µM with NCI-H23 lung; 26.2 µM in the assay with NCI-H522 lung. The TGI with OVCAR-4 ovarian is more than 100 µM; in the assay on SK-MEL-28 melanoma it was 37.4 µM; in the assay with SK-MEL-5 melanoma, 23.6 µM; in the assay on UACC-62 melanoma it was 30.6 µM.

With `CN(C)c1ccc2c(c1)oc(=O)c1ccccc12`, the TGI in the assay with 786-0 renal turned out to be 26.5 µM; in the assay on DU-145 prostate it was 23 µM; in the assay on LOX IMVI melanoma it was 18.7 µM; in the assay with MALME-3M melanoma, 24.5 µM; in the assay on NCI-H23 lung it was 22.4 µM; in the assay with NCI-H522 lung, 20.9 µM. Also, the TGI in the assay on OVCAR-4 ovarian amounted to 28.2 µM; in the assay with SK-MEL-28 melanoma, 34.3 µM; with SK-MEL-5 melanoma, 22.8 µM; with UACC-62 melanoma, 30.4 µM.

Take `COc1cc2c(c(OC)c1OC)-c1ccc(NCc3ccccc3)c(=O)cc1[C@@H](NC(C)=O)CC2`: the GI50 with 786-0 renal is 0.745 µM; in the assay with DU-145 prostate, 0.374 µM; in the assay on LOX IMVI melanoma it was 0.444 µM; in the assay with MALME-3M melanoma, 0.72 µM; with NCI-H23 lung it was 0.628 µM; with NCI-H522 lung, 0.327 µM. The GI50 with OVCAR-4 ovarian is 0.989 µM; in the assay on SK-MEL-28 melanoma, 0.499 µM; in the assay on SK-MEL-5 melanoma it was 0.422 µM; with UACC-62 melanoma, 0.526 µM. Further, the TGI in the assay on 786-0 renal was 46.8 µM; in the assay on DU-145 prostate it was 7.91 µM; in the assay with LOX IMVI melanoma it was 14.9 µM; in the assay on MALME-3M melanoma it was 40.2 µM; in the assay with NCI-H23 lung, 54.9 µM; in the assay on NCI-H522 lung, 1.52 µM. For the same molecule, the TGI in the assay with OVCAR-4 ovarian amounted to 45.9 µM; with SK-MEL-28 melanoma, 31.5 µM; in the assay with SK-MEL-5 melanoma, 1.94 µM; in the assay with UACC-62 melanoma it was 22.4 µM.

For the molecule `COc1cc2c(c(O)c1C)C(=O)C(Cl)=CC2=O`, the TGI in the assay with 786-0 renal was 28.2 µM; in the assay on DU-145 prostate, 13.3 µM; in the assay with LOX IMVI melanoma, 23.8 µM; in the assay with MALME-3M melanoma, 12.5 µM; in the assay with NCI-H23 lung, 25 µM; in the assay with NCI-H522 lung it was 5.24 µM. Also, the TGI in the assay with OVCAR-4 ovarian was 33.7 µM; in the assay on SK-MEL-28 melanoma, 35.1 µM; with SK-MEL-5 melanoma, 21.7 µM; in the assay on UACC-62 melanoma, 13.8 µM.

On to `COc1ccc(CN2CCCC(C(=O)c3ccc(C(F)(F)F)cc3)C2)c(O)c1` (stereo not given), for which the GI50 was 17.3 µM with 786-0 renal; 53.9 µM with DU-145 prostate; 18.4 µM in the assay on LOX IMVI melanoma; 18.2 µM in the assay with MALME-3M melanoma; 28.5 µM in the assay with NCI-H23 lung; 19.3 µM in the assay on NCI-H522 lung. Moreover, the GI50 in the assay with OVCAR-4 ovarian was 29.2 µM; in the assay with SK-MEL-28 melanoma, 17.1 µM; with SK-MEL-5 melanoma it was 15.9 µM; with UACC-62 melanoma it was 12.4 µM. Besides, the TGI was 40.4 µM in the assay on 786-0 renal; more than 100 µM in the assay on DU-145 prostate; 35.3 µM with LOX IMVI melanoma; 35.5 µM in the assay with MALME-3M melanoma; more than 100 µM in the assay on NCI-H23 lung; 42.2 µM with NCI-H522 lung. For the same molecule, the TGI in the assay with OVCAR-4 ovarian is more than 100 µM; with SK-MEL-28 melanoma, 43.9 µM; with SK-MEL-5 melanoma, 29.8 µM; in the assay with UACC-62 melanoma, 31.3 µM.

On to `CN(C)S(=O)(=O)Nc1ccccn1`, for which the TGI with 786-0 renal, with DU-145 prostate, in the assay on LOX IMVI melanoma, in the assay on MALME-3M melanoma, in the assay with NCI-H23 lung and with NCI-H522 lung was more than 100 µM each time. The TGI with OVCAR-4 ovarian, in the assay with SK-MEL-28 melanoma, in the assay with SK-MEL-5 melanoma and with UACC-62 melanoma was more than 100 µM in each case.

Consider `CN1CN(c2ccccc2)C2(CCN(CCCC3(c4cccs4)OCCO3)CC2)C1=O`, for which the TGI in the assay with 786-0 renal, in the assay with DU-145 prostate, with LOX IMVI melanoma, with MALME-3M melanoma, in the assay with NCI-H23 lung and in the assay with NCI-H522 lung was more than 100 µM in each case. The TGI in the assay with OVCAR-4 ovarian, in the assay with SK-MEL-28 melanoma, with SK-MEL-5 melanoma and in the assay with UACC-62 melanoma was more than 100 µM throughout.

As to `CCOC(=O)C(=O)N1C(C)=C(C(=O)OCC)CC(C(=O)OCC)=C1C`, the TGI in the assay with 786-0 renal, in the assay with DU-145 prostate, with LOX IMVI melanoma, in the assay with MALME-3M melanoma, in the assay with NCI-H23 lung and in the assay with NCI-H522 lung was more than 100 µM each time. For the same molecule, the TGI in the assay with OVCAR-4 ovarian, in the assay on SK-MEL-28 melanoma, with SK-MEL-5 melanoma and in the assay on UACC-62 melanoma was more than 100 µM each time.

With `N#Cc1c(O)c2c(c(O)c1C#N)C(=O)c1ccccc1C2=O`, the GI50 is 2.45 µM in the assay with 786-0 renal; 1.19 µM in the assay on DU-145 prostate; 0.349 µM in the assay with LOX IMVI melanoma; 0.475 µM in the assay with MALME-3M melanoma; 0.621 µM with NCI-H23 lung; 2 µM in the assay with NCI-H522 lung. The GI50 in the assay with OVCAR-4 ovarian was 1.43 µM; in the assay with SK-MEL-28 melanoma, 1.06 µM; in the assay on SK-MEL-5 melanoma, 0.282 µM; in the assay with UACC-62 melanoma it was 1.05 µM. In addition, the TGI turned out to be 5.45 µM in the assay on 786-0 renal; 2.5 µM in the assay with DU-145 prostate; 4.29 µM with LOX IMVI melanoma; 1.7 µM in the assay with MALME-3M melanoma; 2.7 µM in the assay with NCI-H23 lung; 5.92 µM with NCI-H522 lung. Further, the TGI came out at 3.79 µM with OVCAR-4 ovarian, 3.58 µM in the assay on SK-MEL-28 melanoma, 1.14 µM in the assay with SK-MEL-5 melanoma and 2.85 µM in the assay with UACC-62 melanoma.

Consider `Fc1ccc(-c2nn(-c3ccccc3)cc2-c2nc3ccccc3o2)cc1`, for which the GI50 in the assay with 786-0 renal was 15 µM; in the assay with DU-145 prostate, 5.65 µM; with LOX IMVI melanoma, 2.36 µM; with MALME-3M melanoma, 1.71 µM; with NCI-H23 lung it was 2.26 µM; with NCI-H522 lung, 3.62 µM. Further, the GI50 is 9.12 µM in the assay on OVCAR-4 ovarian, 13.4 µM in the assay on SK-MEL-28 melanoma, 5.72 µM in the assay on SK-MEL-5 melanoma and 5.5 µM with UACC-62 melanoma. Besides, the TGI in the assay on 786-0 renal was more than 100 µM; with DU-145 prostate, 19.4 µM; in the assay with LOX IMVI melanoma, 12.4 µM; in the assay with MALME-3M melanoma it was 5.99 µM; with NCI-H23 lung, 11.7 µM; in the assay with NCI-H522 lung, 16.8 µM. Besides, the TGI with OVCAR-4 ovarian was more than 100 µM; with SK-MEL-28 melanoma it was 39.4 µM; with SK-MEL-5 melanoma it was 19.3 µM; in the assay on UACC-62 melanoma it was 19.6 µM.

For the origin of these results see PubChem BioAssay (NCI).
